Source: patent US20230366023A1, “METHODS AND COMPOSITIONS FOR BIOLUMINESCENCE-BASED SEQUENCING” (BGI Shenzhen Co., Ltd., priority 2020, published 2023)
Entries after “also recorded” stand apart in the source; their conditions may differ.

Assays:
[1] = On-board stability of substrates in reaction buffer (FIG. 5); format: physicochemical; conditions: room temperature 24 hours in reaction buffer, compared with fresh condition
Description: The term “on-board stability” refers to the stability of […] in reaction buffer under the room temperature for 24 hours.
To develop the substrate reaction buffer into a robust reagent kit for the bioluminescence-based sequencing platform, both on-board stability and long term shelf life have been evaluated. […] We evaluated the room temperature stability for 24 hours (referred as on-board stability) for both CTZ and f-CTZ in the reaction buffer formulation listed above.

[2] = Long-term shelf life of substrates in reaction buffer (FIG. 6); format: physicochemical; conditions: 300 uM in reaction buffer, −20° C.
Description: Long-term shelf life (long-term stability) was also evaluated for the substrate reaction buffer formulation. 300 uM substrate was diluted in the reaction buffer and stored at −20° C. One aliquot was thaw and tested against the fresh luciferase. Data at each time point was the relative signal intensity ratio compared to a fresh luciferase/substrate pair.

Solubility of substrates = format: physicochemical
Description: An optimal organic solvent as substrate stock buffer was needed to obtain good solubility and good stability. Different organic solvents and mixes were tested, such as ethanol, propylene glycol, methonal, DMSO, and mixes of these solvents at different ratios.

Gluc [3] = experiment: Luciferase signal after incubation with SMCC linker or iodoacetamide (FIG. 10B); format: biochemical, Gaussia princeps
Description: (§1) We investigated the detailed luciferase structures to find the reason for the signal drop. […] To confirm this hypothesis, lodoacetamide was used to incubate with both Gluc and Nluc. Lodoacetamide can bind covalently to the thiol group of cysteine so the protein cannot form disulfide bonds, as illustrated in FIG. 10A. […] This was the reason why there is signal loss after incubating the SMCC with Nluc/Gluc which leads to low signal intensity for the final antibody conjugates.

Nluc [4] = molecular target: T1, Nluc (Oplophorus gracilirostris, UniProt Q9GV45, A31E/A60N/A81I/F95D/I117V/K70R/L54V/L99Q/M102K/N193R/P142E/Q151K/Q38R/Q45L/V71I/Y165I); experiment: as above; format: biochemical; conditions: Nluc:iodoacetamide 1:10 ratio at RT for 30 min
T1 construct: purchased Prolume Inc
Description: as §1

[5] = relative; each luciferase with the substrate listed in Table 1
Text: Preferably the luciferase is relatively small (e.g., less than 30 KDa) so that they can be readily engineered, e.g., be coupled to or fused to an affinity reagent disclosed herein. […] Other non-limiting examples of luciferases that can be used include Nanoluc (Promega) and NanoKaz (NanoLight Technology), which also comprise a sequence of SEQ ID NO: 2.

[6] = Stability of luciferases in cells (Table 1); format: cell-based
Gluc [7] = experiment: Signal and thermostability after Traut's modification (FIG. 11C, 11D); format: biochemical, Gaussia princeps
Description: (§2) Other conjugation methods were also attempted to avoid the side reactions from SMCC. […] After purification of each reaction, the luciferase after Traut's treatment and the antibody after SMCC treatment were mixed together to react through the —SH group on the luciferase and maleimide on the SMCC group on antibody.
Beside signal evaluation, stability study had also been investigated. […] For Nluc, Traut's modification (1:1 ratio) helps to improve stability and signal for about 30% at 50° C.

Nluc [8] = molecular target: T1, Nluc; experiment: as above; format: biochemical
Text: as §2
Beside signal evaluation, stability study had also been investigated. […]

Gluc [9] = experiment: Selective deactivation by DTT (FIG. 18B); format: biochemical, Gaussia princeps
Description: (§3) Selective deactivation agents that are suitable for the invention include, but not limited to, Dithiothreitol (DTT), beta-mercaptoethylamine, tris-carboxyethylphosphine (TCEP). The suitable concentrations of the agent (e.g., DTT) for selectively deactivating the first luciferease may range from 0.001M to 2M, e.g., from 0.01M to 0.5M, from 0.05M to 1M, 0.07M to 0.5M, or about 0.1M.
In each cycle a mixture of NLRTs were incubated with the DNA template to be sequenced in the presence of a DNA polymerase. These NLRTs include 7-deaza-7-biotin-linker-3′-azidomethyl-dATP, 5-biotin-linker-3′-azidomethyl-dTTP, 5-digoxin-linker-3′-azidomethyl-dTTP, 5-digoxin-linker-3′-azidomethyl-dCTP, and 3′-azidomethyl-dGTP. Streptavidin-conjugated Gluc (recognizing biotin-labeled nucleotides A and T) was added to the sequencing flow cell followed by adding substrate CTZ. Bioluminesnce signals from the cleavage of CTZ by the Gluc was collected. […] Subsequently, Nluc-conjugated anti-Digoxin antibody was added to the flow cell to bind the Digoxin-labeled nucleotides (T and C). No signals for G were detected as expected.

Nluc [10] = molecular target: T1, Nluc; experiment: Selective deactivation by DTT (FIG. 18A); format: biochemical
Text: as §3

Nluc mutant = molecular target: T2, Nluc mutant (Oplophorus gracilirostris, UniProt Q9GV45, A31E/A60N/A81I/F95D/I117V/K70R/L54V/L99Q/M102K/N193R/P142E/Q151K/Q38R/Q45L/V71I/Y165I); experiment: Screening of CTZ analogs as substrate (FIG. 4); format: biochemical; conditions: with Nluc mutant
T2 construct: purchased Prolume Inc

[11] = Cross-substrate reactivity of Nluc with the Gluc substrate (FIG. 3); format: biochemical
Description: In some embodiments, the luciferase is incubated with the substrate for a sufficient amount of time to allow the development of the signal before detection. The step of signal development may last between 5 to 30 minutes, for example, about 10 minutes.

[12] = Side-by-side signal intensity comparison of commercial luciferases (FIG. 2); format: biochemical; conditions: integrated signal intensity from the first 10 sec
Text: However, it was still multiple fold intensity higher than the rest of the counterparts. […] The integrated signal intensity from the first 10 sec was obtained from each luciferase/substrate pair to have the comparison.

Oc1ccc(Cc2nc3c(Cc4ccccc4)nc(-c4ccc(O)cc4)cn3c2O)cc1 [CTZ, coeleterazine]
on-board stability [1]: no significant difference; also recorded: not significantly different | long-term stability (relative signal intensity versus fresh luciferase/substrate pair) ([2]; Gluc/CTZ, 6 months): no significant signal drop | water solubility (Solubility of substrates): not water-soluble

NC(=O)CI [lodoacetamide, Iodoacetamide]
signal lost after reacting with iodoacetamide (Gluc [3]; Gluc:iodoacetamide 1:10 ratio at RT for 30 min, fraction of signal): 2/3 | signal lost after reacting with iodoacetamide (Nluc [4]): lost all signal

firefly: firefly luciferase, substrate D-Luciferin
Signal intensity [5]: 1 | Stability in cells [6]: 0.00694 days

O=C(ON1C(=O)CCC1=O)C1CCC(CN2C(=O)C=CC2=O)CC1 (stereo not shown) [SMCC]
signal drop after incubating with SMCC linker (Gluc [3]; Gluc): 15%-30%

N=C1CCCS1 [Traut's reagent, 2-iminothiolane]
signal increase after Traut's modification (Gluc [7]; 1:1 molar ratio gives the highest signal): 60% | thermostability after Traut's modification (Gluc [7]; 50° C. or 70° C. for 1 hour): worse stability | thermostability after Traut's modification (Nluc [8]; Nluc modified or unmodified, 70° C. for 1 hour): cannot survive 70 °C | signal increase after Traut's modification (in words) (Nluc [8]; Nluc, 1:1 molar ratio gives the highest signal): doubled

O[C@H](CS)[C@H](O)CS (racemic) [DTT, Dithiothreitol]
deactivation in sequencing flow cell (Gluc [9]; 100 mM DTT): deactivated Gluc | signal reduction after DTT treatment (Gluc [9]; Gluc): more than 95% | signal change after DTT treatment (Nluc [10]): did not impair the activity; also recorded: no significant changes

O=c1c(Cc2ccc(F)cc2)nc2c(Cc3ccccc3)[nH]c(-c3ccc(O)cc3)cn1-2 [f-CTZ, fluorinated coeleterazine]
on-board stability [1]: no significant difference; also recorded: not significantly different | signal intensity among the different CTZ analog structures (Nluc mutant): optimal substrate; also recorded: highest signal intensity | long-term stability (relative signal intensity versus fresh luciferase/substrate pair) ([2]; Nluc/f-CTZ, 4 months): no significant signal drop | water solubility (Solubility of substrates): not water-soluble

B1: Nluc: NanoZac luciferase polypeptide (SEQ ID NO: 2), Prolume Inc. (protein)
chain: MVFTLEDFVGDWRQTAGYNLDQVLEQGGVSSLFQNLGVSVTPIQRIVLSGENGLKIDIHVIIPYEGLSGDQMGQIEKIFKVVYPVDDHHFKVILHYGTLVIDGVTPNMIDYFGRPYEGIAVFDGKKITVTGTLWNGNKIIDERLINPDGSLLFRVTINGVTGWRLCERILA
background signal when reacting with the Gluc substrate ([11]; Nluc with CTZ): about 10% | cross-substrate reactivity ([11]; in words, FIG. 3): no significant cross-substrate reactivity | signal compared to the Gluc mutant [12]: half

B2: NanoKaz: NanoKaz luciferase (NanoLight Technology), substrate Coelenterazine-F (protein)
chain: B1 chain
Signal intensity [5]: 150 | Stability in cells [6]: 7.7 days

B3: Nanoluc: Nanoluc luciferase (Promega), substrate Furimazine (protein)
chain: B1 chain
Signal intensity [5]: 80 | Stability in cells [6]: 7.7 days

B4: Gaussia: Gaussia luciferase (GLuc), substrate Coelenterazine (protein)
chain: MKPTENNEDFNIVAVASNFATTDLDADRGKLPGKKLPLEVLKELEANARKAGCTRGCLICLSHIKCTPKMKKFIPGRCHTYEGDKESAQGGIGEAIVDIPEIPGFKDLEPLEQFIAQVDLCVDCTTGCLKGLANVQCSDLLKKWLPQRCATFASKIQGQVDKIKGAGGDHHHHHH
Signal intensity [5]: 160 | Stability in cells [6]: 10.5 days
